# According to PubChem BioAssay AID1996:
# Settings: buffer; pH 7.4; 200.0 µM
row,SMILES,solubility kinetic [µg/mL]
1,CNc1nc(-c2ccccc2)cc(-c2ccccc2)n1,1.4
2,O=C1CCCN1C(=O)CSc1ccc2ccccc2n1,41.9
3,CC(C)Sc1ccccc1C(=O)Nc1ccc2c(c1)n(C)c(=O)n2C,> 53.3
4,O=C1CCCN1CCCNC(=S)Nc1ccccc1,41
5,COC(=O)c1sccc1NC(=S)Nc1cccc(F)c1,34.4
6,NC(=S)COc1ccccc1,18.3
7,O=C(O)CCCC(=O)Nc1cc([N+](=O)[O-])ccc1O,35.8
8,O=C(Cc1c(F)cccc1Cl)NCc1cccnc1,> 41.8
9,CCN(C(=O)CSc1nc2ccccc2c(=O)n1-c1cccc(C)c1)C1CCS(=O)(=O)C1 (stereo unspecified),2.8
10,CN1/C(=C/C=C(C#N)C#N)C=Cc2ccccc21,1.1
11,CC(C)(C)C(=O)CN1C(=O)NC2(CCc3ccccc32)C1=O (stereo unspecified),> 45.1
12,Cc1ccnc(SC2CC(=O)N(c3ccc(Cl)cc3)C2=O)n1 (stereo unspecified),> 50.1
13,CCOC(=O)c1cnc(-c2ccccc2)nc1N1CC(C)OC(C)C1 (stereo unspecified),32.1
14,CC[N+](CC)(CC)CC(=O)Nc1c(C)cccc1C.[Br-],> 51.5
15,O=C(OC1CCOC1=O)c1ccc(N2CCCC2)c([N+](=O)[O-])c1 (stereo unspecified),> 48
16,Cc1ccc(C)c(OCCC(=O)Nc2ccccc2C(=O)NC2CC2)c1,4.2
17,CCn1c(=O)c2c(nc3n2CCCN3Cc2ccccc2)n(C)c1=O,13.7
18,CC(=O)c1c(C)[nH]c(C(=O)COC(=O)C2(C)CC2(Cl)Cl)c1C (stereo unspecified),11.9
19,Cc1nn(CC(=O)NC2CCCCC2)c(=O)c2cccn12,> 43.3
20,Cc1csc(NC(=O)c2ccc[nH]c2=O)n1,> 35.3
21,CC1CCN(C2CC(=O)N(c3ccc(Br)cc3Br)C2=O)CC1 (stereo unspecified),40.4
22,CC(C)C(=O)NCC(c1ccc2c(c1)OCO2)N1CCOCC1 (stereo unspecified),> 48.1
23,O=C(/C=C/c1ccco1)N(Cc1ccccc1)C1CCS(=O)(=O)C1 (stereo unspecified),47.1
24,N#Cc1ccccc1COC(=O)CCC(=O)c1cccs1,> 44.9
25,O=C(Nc1cc(S(=O)(=O)N2CCOCC2)ccc1N1CCCCC1)c1ccccc1Br,6.1
26,CC(C)Cn1c(=S)[nH]c2cc(Cl)ccc21,18.5
27,Cc1cc(=O)n(C(C)(C)C)c(=O)n1Cc1ccccc1,> 40.9

# The next lines start with the values.
row,solubility kinetic [µg/mL],SMILES
1,> 50.4,Cc1cc[n+](CC2OCc3ccccc3CO2)cc1.[Br-]
2,< 0.3,CC(C)Cc1cc(C(=O)Nc2ccc(Br)cc2)no1
3,3.2,Nc1nc2c(Cl)ccc(Cl)c2s1
4,1.4,CCOC(=O)c1oc2nc(CC(C)C)c3c(c2c1N)CCCC3
5,24.2,OCCNc1nc(-c2ccccc2)c2cc(Br)ccc2n1
6,> 50.1,COc1ccc(CCNC(=O)Cc2ccc(Cl)cc2)cc1OC
7,38.3,N#CCC(=O)Nc1ccc(C(F)(F)F)cc1N1CCOCC1
8,26.4,CC(C)Nc1c([N+](=O)[O-])c(=O)oc2ccccc12
9,28.1,Cc1ccnc(NS(=O)(=O)c2ccc3ccccc3c2)n1
10,3.4,COc1ccccc1NC(=O)c1cc(Cl)nc2ccccc12
11,31.7,COc1ccc(CC(=O)N2CCN(c3ccccc3)CC2)cc1
12,> 48.2,CCOP(=O)(c1ccccc1)C(O)c1ccc([N+](=O)[O-])cc1 (stereo unspecified)
13,> 35.4,COCCNC(=O)/C(C#N)=C/c1cccs1
14,10.4,Cc1cc(C)nc(Nc2ccccc2Cl)n1.Cl
15,> 39.8,CCOC(=O)CNC(=O)C1COc2ccccc2O1 (stereo unspecified)
16,> 30.4,Clc1nc2c(ccc3ccccc32)[nH]1
17,0.8,CC(C)(C)C(=O)Nc1ccc(-c2cc3cc(Cl)ccc3o2)cc1

row,solubility kinetic [µg/mL],SMILES
1,35.2,CCOC(=O)C1(C)Oc2cccnc2NC1=O (stereo unspecified)
2,> 57.4,CCOc1ccc(N2CC(C(=O)Nc3ccc4c(c3)OCCO4)CC2=O)cc1 (stereo unspecified)
3,> 41.3,Cn1c(SCC(=O)N2CCCC2)nc2ccccc21
4,24,CC1(C)CC(=O)C=C(Nc2cccc(C(F)(F)F)c2)C1
5,14.3,Clc1cccc(CN2CCCCCC2)c1
6,> 53.2,COc1ccc(/C=N/NC(=O)c2cccnc2)cc1CN1CCOCC1
7,> 44.3,CC(=O)N1CCN(C(=O)CNC(=O)c2cccs2)CC1
8,6.1,COc1ccc(C(=O)NCC(=O)OCC(=O)c2c(C)[nH]c3ccccc23)cc1OC
9,10.5,O=C(Nc1ccc(F)cc1F)c1ccc(S(=O)(=O)NCc2ccco2)cc1
10,27.9,CN(CC(=O)Nc1cccc(C#N)c1)Cc1ccc(Cl)cc1
11,10,O=C(NCC(c1cccs1)N1CCOCC1)c1cc2ccccc2oc1=O (stereo unspecified)
12,> 42.7,COc1ccc(S(=O)(=O)N2CCCCCC2)cc1N
13,> 44.9,CCC(CC)C(=O)c1c[nH]c(C(=O)NCc2ccccn2)c1
14,0.8,O=C(NC(=S)Nc1cccc(Cl)c1Cl)C1CC1
15,> 33.7,NC(=O)/C=C/C(=O)Nc1ccc(Cl)cc1
16,3,Cc1cccc(NC(=O)c2ccccc2C(=O)Nc2cccc(C)c2)c1
17,< 0.7,COc1ccc2cc(C(=O)NCc3ccccc3)c(=O)oc2c1
